Assay results: article PMC4585840 (Scientific Reports, 2015)

Legend:
RCasp1 = biological target: T1, RCasp1 (Homo sapiens, UniProt P29466); assay: in vitro fluorogenic Casp1 activity assay (z-YVAD-AFC); format: biochemical; conditions: Fig. 1g
T1 construct: purchased Biovision
T1 sequence (P29466 120-404): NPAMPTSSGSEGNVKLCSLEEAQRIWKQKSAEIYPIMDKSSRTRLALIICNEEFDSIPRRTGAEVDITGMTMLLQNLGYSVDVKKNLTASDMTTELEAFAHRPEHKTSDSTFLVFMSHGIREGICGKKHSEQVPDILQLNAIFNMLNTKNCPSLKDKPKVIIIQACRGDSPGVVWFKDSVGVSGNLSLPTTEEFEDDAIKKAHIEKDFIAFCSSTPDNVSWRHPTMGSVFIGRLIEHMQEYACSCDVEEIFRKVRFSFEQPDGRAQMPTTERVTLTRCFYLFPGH
Method: (§1) Activity assays for RCasp1 (Biovision, Millpitas, CA, USA) and RCasp3 (Enzo Lifesciences) used Z-Tyr-Val-Ala-Asp-7-Amino-4-trifluoromethylcoumarin (z-YVAD-AFC: Enzo LifeSciences,), and Ac-Asp-Glu-Val-Asp-7-Amino-4-trifluoromethylcouramin (Ac-DEVD-AFC: Enzo LifeSciences), respectively. To confirm that these substrates report caspase activity and not proteasomal caspase-like enzyme activity, 1 μM pan-caspase inhibitor, Q-VD-OPh (Sigma-Aldrich) or 0.1 μM proteasome inhibitor, bortezomib (Calbiochem, MA, USA) were tested on 20 nM RCasp3 or 40–60 μg of mouse liver protein extracts.

RCasp6 [1] = biological target: T2, RCasp6 (Homo sapiens, UniProt P55212); assay: in vitro tubulin cleavage assay with RCasp6; format: biochemical; conditions: 20 nM RCasp6, 10 μM DTT, 10 hours, western blot densitometry; read-out: IC50, cleavage of tubulin by RCasp6 (Tub∆Casp6 relative to total tubulin)
T2 construct: The zymogen is cleaved at three distinct sites to remove the prodomain and linker regions in order to obtain an active enzyme; His tag (C); made in house; host or cells: E. coli BL21 (DE3)pLysS
T2 sequence (P55212 24-179 limits assumed): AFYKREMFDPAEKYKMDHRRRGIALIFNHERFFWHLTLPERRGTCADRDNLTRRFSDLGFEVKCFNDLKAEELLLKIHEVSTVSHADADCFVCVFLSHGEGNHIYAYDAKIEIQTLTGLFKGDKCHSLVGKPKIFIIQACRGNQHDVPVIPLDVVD
T2 sequence (P55212 194-293 limits assumed): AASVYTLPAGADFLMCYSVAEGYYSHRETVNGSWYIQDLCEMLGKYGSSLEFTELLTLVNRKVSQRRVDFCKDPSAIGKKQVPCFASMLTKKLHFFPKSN
Method: Phenothiazines were mixed with 20 nM RCasp6 or RCasp3, 10 μM DTT, and 7.5 nM BSA in SB and 36 μg HCT116 protein extracts added before incubation at 37 °C for 10 hours, western blotting, and densitometry for tubulin-cleaved by Casp6 (Tub∆Casp6) and total tubulin as described in the western blot section. The IC50 was determined by a non-linear regression fit for log inhibitor vs caspase activity with a Hill slope of −1 using GraphPad Prism 5.0.
(§2) The 10630 (1:10,000) and GN60622 (1:10,000) neoepitope antibodies against the p20 subunit of active Casp6[16] and Tub∆Casp6[23], respectively, were generated in our laboratory. The β-actin clone AC-15 (1:5000, Sigma-Aldrich), Casp6 p10 clone B93-4 (1:250, BD Canada, Mississauga, ON, CA), Casp3, and full-length α-tubulin (1:1000, Cell Signaling Technology Inc., Danvers, MA, USA) antibodies were diluted in 5% non-fat dry milk in Tris-buffered saline containing 0.1% Tween-20 (Sigma-Aldrich). […] Secondary anti-mouse conjugated to alkaline phosphatase (Jackson Immunoresearch Laboratories Inc., West Grove, PA) was developed with nitro-blue tetrazolium (ThermoSci) and 5-bromo-4-chloro-3′-indolyphosphate (ThermoSci).

RCasp6 [2] = biological target: T2, RCasp6; assay: in vitro fluorogenic Casp6 activity assay (Ac-VEID-AFC); format: biochemical; conditions: 10 μM DTT; Fig. 1c
RCasp3 = biological target: T3, RCasp3 (Homo sapiens, UniProt P42574); assay: in vitro tubulin cleavage assay with RCasp3; format: biochemical; conditions: 20 nM RCasp3, 10 μM DTT, 10 hours, western blot densitometry; read-out: IC50 on RCasp3-cleaved tubulin
T3 construct: Active Casp6 and Casp3 represented >99% of the purified enzyme; purchased Enzo Lifesciences
T3 sequence (P42574 29-175 limits assumed): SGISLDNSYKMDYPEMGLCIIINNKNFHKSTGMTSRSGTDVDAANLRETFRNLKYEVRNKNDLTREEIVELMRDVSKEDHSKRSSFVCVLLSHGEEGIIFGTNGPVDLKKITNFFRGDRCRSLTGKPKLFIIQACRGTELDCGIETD
T3 sequence (P42574 176-277 limits assumed): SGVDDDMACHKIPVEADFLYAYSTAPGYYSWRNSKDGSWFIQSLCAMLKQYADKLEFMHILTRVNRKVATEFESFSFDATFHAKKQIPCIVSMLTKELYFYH

human primary neurons = assay: cell viability (microscopy) in human primary neurons; format: cell-based; conditions: phase contrast microscopy, 2 hours
Method: (§3) HCT116 cells, plated at a density of 1 × 10^5 cells/well and human neurons, plated at a density of 6 × 10^6 cells/well on poly-L-lysine were treated with PBS or phenothiazines for 2 hours. The media was replaced before acquiring images with the Nikon Eclipse Ti microscope and the NIS-Elements (Version 3.10) software. MTT assays: Cells were plated in 96-well plates at 1 × 10^4 or 1 × 10^5 cells per well for 24 hours before treatments with phenothiazines or PBS. After 2 hours, fresh media containing […] MTT (3-(4,5-dimethylthiazol-2-yl)-2,5-diphenyltetrazolium bromide) (Sigma-Aldrich) was added and the cells were incubated for 4 hours at 37 °C in 5% CO2. The media was removed, formazan crystals were dissolved in DMSO, and the absorbance was measured at 560 nm and 670 nm using the BioTek Synergy H4 plate reader.

Casp6 = biological target: T4, Casp6 (Homo sapiens, UniProt P55212); assay: Casp6 activity in Casp6p20p10-transfected HCT116 cells; format: cell-based; set-up: for active Casp6p20 subunit (p20), full length Casp6 lacking its pro-domain; Casp6p20p10 (p20p10); expressed in transfected cells; host or cells: HCT116 human colon carcinoma cells; conditions: transfected HCT116, 2 hrs; 100 μM and 1 mM methylene blue, 50 μM azure A, 10 μM and 100 μM azure B
T4 sequence (P55212 24-179 limits assumed): T2 sequence (P55212 24-179 limits assumed)
T4 sequence (P55212 194-293 limits assumed): T2 sequence (P55212 194-293 limits assumed)
Method: as §1
Human colon carcinoma (HCT116) cells, cultured as recommended (ATCC: Manassas, VA, USA), were transfected with 1 μg pCep4βCasp6p20p10 and 8 μg polyethyleneimine (Polysciences Inc., Warrington, PA, USA), and grown 24 hrs before treatment with PBS and phenothiazines for 2 hours. Human primary neurons were cultured from fetal brain cortical areas obtained under ethical guidelines and approved by the McGill University’s institutional review board as previously described. Human primary neurons plated in poly-L-lysine -coated 6-well plates at a density of 3 × 10^6 cells/mL were serum-deprived for 2 hours in the presence of phenothiazines or an equivalent volume of PBS. Proteins were harvested in cell lysis buffer (CLB; 50mM HEPES, 0.1% CHAPS, 0.1mM EDTA).
as §2

HCT116 cells = assay: cell viability (microscopy and MTT) in HCT116 cells; format: cell-based, human; conditions: 2 hours
Method: as §3

RCasp6 [3] = biological target: T2, RCasp6; assay: inhibitor kinetic studies (Michaelis-Menten / Lineweaver-Burk) on RCasp6; format: biochemical; conditions: competitive inhibition model, nonlinear regression, Ac-VEID-AFC substrate, 10 nM RCasp6

CN(C)c1ccc2nc3ccc(=[N+](C)C)cc-3sc2c1 [methylene blue, [7-(dimethylamino)phenothiazin-3-ylidene]-dimethylazanium;chloride]
inhibition of RCasp1 in the fluorogenic assay (RCasp1): dose dependent inhibition | IC50 (RCasp6 [1]): 10.6 µM | concentration at which reduction in Casp6 activity was observed (RCasp6 [2]): 100 pM | IC50 (RCasp3): 14.2 µM | concentration above which cell body size and axonal fragmentation increased (human primary neurons): above 100 μM | Casp6 activity on the Ac-VEID-AFC peptide substrate (Casp6): significantly inhibited | concentration that decreased MTT absorbance to almost nothing (toxicity) (HCT116 cells; HCT116, MTT assay): 10000 µM | concentration up to which MTT absorbance was similar to PBS-treated cells (HCT116 cells; HCT116, MTT assay): up to 1 mM | concentration at which cells retained morphology and confluence comparable to PBS-treated controls (HCT116 cells; HCT116, phase contrast microscopy): 100 μM | Ki (RCasp6 [3]): 50.5 µM
